This passage reports melting point results from US20080070909A1, “ENANTIOMERICALLY PURE BETA AGONISTS, MANUFACTURING AND USE THEREOF” (priority 2006, published 2008).

For orientation: melting point means the temperature of the solid-liquid transition.

The structures appear in SMILES notation.

`CCC1(CC)OC(=O)N(CCC(C)(C)NCC(O)c2ccc(O)c(NS(C)(=O)=O)c2)c2ccccc21` (stereo not shown) [Example 10, N-(5-{2-[3-(4,4-diethyl-2-oxo-4H-benzo[d][1,3]oxazin-1-yl)-1,1-dimethyl-propylamino]-1-hydroxy-ethyl}-2-hydroxy-phenyl)-methanesulphonamide] registered a melting point of 168 °C.
